Source: publication PMC4812014, “Structural Investigations of N-carbamoylputrescine Amidohydrolase from Medicago truncatula: Insights into the Ultimate Step of Putrescine Biosynthesis in Plants” (Frontiers in Plant Science, 2016)

Tests used:
MtCPA [1] = target: T1, MtCPA (Medicago truncatula, UniProt G7ITU5); test: X-ray crystallography of complex, […] Å; type: binding; settings: covalent; bound to Cys158 in active site; formed in crystal from 10 mM putrescine (probably with CO2), pH 7.0
T1 construct: gene MTR_2g086600; recombinant in E. coli BL21 Gold (pMCSG68); His6 tag cut by TEV, N-terminal Ser-Asn-Ala linker remains; homooctamer, active site fenced by dimer mate
T1 sequence (G7ITU5 entry or part of it): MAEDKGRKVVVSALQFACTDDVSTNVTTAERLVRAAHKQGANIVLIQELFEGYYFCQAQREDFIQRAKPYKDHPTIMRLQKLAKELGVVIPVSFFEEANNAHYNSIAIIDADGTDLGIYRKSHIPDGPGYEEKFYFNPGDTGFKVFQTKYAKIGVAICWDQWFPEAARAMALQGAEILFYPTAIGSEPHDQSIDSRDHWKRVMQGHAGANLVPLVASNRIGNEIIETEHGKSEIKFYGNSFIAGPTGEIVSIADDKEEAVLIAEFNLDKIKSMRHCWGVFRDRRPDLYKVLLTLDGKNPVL

[2] = target: N-carbamoylputrescine amidohydrolase from Medicago truncatula (MtCPA), wild type (Medicago truncatula); test: crystal structure; hanging drop, 20% PEG3350, 8% Tacsimate pH 7.0 (with or without 10% glycerol); space group P2(1)2(1)2, two octamers in the asymmetric unit; data at 100 K
[3] = target: MtCPA-C158S mutant (Medicago truncatula); test: as above
MtCPA [4] = target: T2, MtCPA (Medicago truncatula, UniProt G7ITU5, C158S); test: X-ray crystallography of complex, […] Å; type: binding; settings: cocrystallized with 10 mM putrescine, pH 7.0; active site, non-covalent
T2 construct: gene MTR_2g086600; recombinant in E. coli BL21 Gold (pMCSG68); His6 tag cut by TEV, N-terminal Ser-Asn-Ala linker remains; homooctamer, active site fenced by dimer mate
T2 sequence (G7ITU5 1-301 C158S): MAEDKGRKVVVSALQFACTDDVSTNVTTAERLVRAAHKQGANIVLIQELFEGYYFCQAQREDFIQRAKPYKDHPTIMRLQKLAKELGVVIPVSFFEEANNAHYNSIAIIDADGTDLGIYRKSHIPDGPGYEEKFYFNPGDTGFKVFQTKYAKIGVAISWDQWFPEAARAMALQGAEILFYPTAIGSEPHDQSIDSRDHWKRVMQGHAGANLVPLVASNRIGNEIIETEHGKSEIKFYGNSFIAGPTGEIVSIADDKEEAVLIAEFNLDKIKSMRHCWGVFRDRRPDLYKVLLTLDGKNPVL

MtCPA [5] = target: T1, MtCPA; test: X-ray crystallography of complex, […] Å; type: binding; settings: cocrystallized with 17 mM cadaverine, pH 7.0; active site, non-covalent

Compound: NCCCCNC(O)O [DHMP, N-(dihydroxymethyl)putrescine]
- X-ray crystallography of complex, 1.97 Å (MtCPA [1]): DHMP was covalently bound to the catalytic Cys158

Compound: N-carbamoylputrescine amidohydrolase from Medicago truncatula (MtCPA), wild type (enzyme)
- stoichiometry N [2]: 8

Compound: MtCPA-C158S mutant (enzyme)
- stoichiometry N [3]: 8

Compound: NCCCCN [PUT, 1,4-diaminobutane]
- X-ray crystallography of complex, 2.29 Å (MtCPA [4]): MtCPA-C158S mutant cocrystallized with PUT clearly shows the ligand without any modifications

Compound: NCCCCCN [CAD, 1,5-diaminopentane]
- X-ray crystallography of complex, 2.19 Å (MtCPA [5]): we do indeed observe CAD in the active site
